According to patent US20080124274A1, “Compositions and methods for detecting and treating tumors containing acidic areas” (priority 2006, published 2008):
Where “and” joins values, the source holds several entries; their conditions need not be identical. Equal entries are not always repeated. Blank lines part the entries; values can stand above or below the molecule they belong to.

What was measured:
acidic areas of tumors = conditions: without corresponding reduction of pH in normal tissues; cited from earlier work
tumors = conditions: tumor-bearing mice; reduction of about 0.3 pH units in the tumors; cited from earlier work
[1] = Titration of the sodium salt with HCl in aqueous solution
Procedure: Typically new structures that may be suitable as advanced pH-switch components are first assessed for their pKa value in normal saline. This entails preparing the sodium salt form of the structure and dissolving it at a concentration of 20 milliMolar in 15 ml of 0.15 Molar NaCl (deareated to remove CO2). […] A plot of pH versus volume of added HCl affords the effective pKa value. It is also desirable to carry out this same titration in methanol/water (1:1 by vol) in order to get an estimate of the pKa value independent of insolubility effects.

[2] = urine rendered basic; cited from earlier work

Molecule: glucose and meta-iodobenzylguanidine
reduction of the pH in acidic areas of tumors (acidic areas of tumors): ≤ 0.7 pH unit

Molecule: O=C(O)CCCc1ccc(N(CCCl)CCCl)cc1 [Chlorambucil]
improvement in tumor growth delay (tumors): 1.7 fold

minimum of the first derivative of the titration curve (pH) ([1]; sodium salt titrated in aqueous solution): ~4.0 and ~5.6
Molecule: CCC[N+]1([O-])CCC(C(=O)O)CC1 (stereo not drawn) [structure iii in FIG. 16b, N-oxide of N-propylisonipocotic acid]

Molecule: N=C(N)NCc1cccc([131I])c1 [meta-iodobenzylguanidine, reference compound]
reduction of the pH in acidic areas of tumors (acidic areas of tumors): further reduced

Molecule: CN(C)C(=O)C=CC(=O)O [FIG. 14b]
mid-point of the transition between salt and acid (pKa value) ([1]; sodium salt titrated with HCl in aqueous solution): below 3.0

Molecule: CC(=O)Nc1nnc(S(N)(=O)=O)s1 [Acetazolamide]
pH of the urine [2]: ≥ 7.4
